Test results published in ChEMBL document CHEMBL3286327, “Cyclohexadepsipeptides of the isaridin class from the marine-derived fungus Beauveria felina EN-135” (J Nat Prod, 2014).
Values after ≈ are worked out from the molar mass of the structure shown. Numbered stars: 1 amine (or outer) side, 2 acyl side, 3 side chain; on linkers, the order of the positions; unused ones are H or OH. Square brackets hold non-standard residues; d marks the D form. Peptide text beside a SMILES is read from it. X1 = C[C@H]1CCN([*:1])[C@@H]1C(=O)[*:2]; NMeF = CN[C@@H](Cc1ccccc1)C(=O)O; Hica(2S) = CC(C)C[C@H](O)C(=O)O; NMeL = CN[C@@H](CC(C)C)C(=O)O; NMeV = CN[C@H](C(=O)O)C(C)C; βAla = NCCC(=O)O

Assays:
Escherichia coli = assay: Antibacterial activity against Escherichia coli after 24 hrs; assay type: functional
Artemia salina = assay: Toxicity in Artemia salina at 100 ug/ml; assay type: organism-based; conditions: in vivo

| Structure (SMILES) | MIC (Escherichia coli) [µg/mL] | Activity (Artemia salina) |
| --- | --- | --- |
| CC(C)C[C@@H]1NC(=O)[C@H](C(C)C)N(C)C(=O)[C@H](Cc2ccccc2)NC(=O)[C@@H]2CCCN2C(=O)[C@H](CC(C)C)OC(=O)CCNC1=O (cyclo(F[NMeV]L[βAla][Hica(2S)]P)) | 8 (≈ 12.2 µM) | Non-toxic |
| CC(C)C[C@@H]1OC(=O)CCNC(=O)[C@H](Cc2ccccc2)N(C)C(=O)[C@H](C(C)C)N(C)C(=O)[C@H](Cc2ccccc2)NC(=O)[C@@H]2CCCN2C1=O (cyclo(F[NMeV][NMeF][βAla][Hica(2S)]P)) | – | Non-toxic |
| CC(C)C[C@@H]1OC(=O)CCNC(=O)[C@H](Cc2ccccc2)N(C)C(=O)[C@H](C(C)C)N(C)C(=O)[C@H](Cc2ccccc2)NC(=O)[C@@H]2[C@@H](C)CCN2C1=O (cyclo(F[NMeV][NMeF][βAla][Hica(2S)][X1])) | – | Non-toxic |
| CC(C)C[C@@H]1OC(=O)CCNC(=O)[C@H](C(C)C)N(C)C(=O)[C@H](C(C)C)N(C)C(=O)[C@H](Cc2ccccc2)NC(=O)[C@@H]2CCCN2C1=O (cyclo(F[NMeV][NMeV][βAla][Hica(2S)]P)) | 16 (≈ 24.4 µM) | Non-toxic |
| CC(C)C[C@@H]1NC(=O)[C@H](C(C)C)N(C)C(=O)[C@H](Cc2ccc(O)cc2)NC(=O)[C@@H]2CCCN2C(=O)[C@H](CC(C)C)OC(=O)CCNC1=O (cyclo(L[βAla][Hica(2S)]PY[NMeV])) | 64 (≈ 95.3 µM) | Non-toxic |
| CC(C)C[C@@H]1OC(=O)CCNC(=O)[C@H](CC(C)C)N(C)C(=O)[C@H](C(C)C)N(C)C(=O)[C@H](Cc2ccc(O)cc2)NC(=O)[C@@H]2CCCN2C1=O (cyclo([Hica(2S)]PY[NMeV][NMeL][βAla])) | 64 (≈ 93.3 µM) | Non-toxic |
| O=C(N[C@H](CO)[C@H](O)c1ccc([N+](=O)[O-])cc1)C(Cl)Cl [CHLORAMPHENICOL] | 4 (≈ 12.4 µM) | – |
